Experimental findings from patent US20160002217A1, “FUNGICIDAL 3--OXADIAZOLONE DERIVATIVES” (BAYER CROPSCIENCE AG, priority 2013, published 2016) are described below.

Marks after values point to notes of the source that are not given here.

The conditions of series [1]: pH 2.7.
Series [2] relates to Phytophthora infestans. Type of series: in vivo. The conditions noted are these: tomato plants, preventive spray, 500 ppm of active ingredient, evaluated 5 days after inoculation.

Consider `CC(C)(C)OC(=O)Nc1nc(CON=C(c2ccsc2)c2noc(=O)[nH]2)cs1` [Example 20], for which the LogP in series [1] was 3.20^[a].

For the molecule `CCCCCC(=O)Nc1cccc(CON=C(c2ccncc2)c2noc(=O)n2C)n1` [Example 84], the “% efficacy” value in series [2] is on record as 100%. Also, the LogP in series [1] was 2.71^[a].

In the case of `N#CC(=NOCc1csc(NC(=O)c2ccc(F)cc2)n1)c1ccsc1` [Example IV-10], the LogP in series [1] was 3.51^[a].

In the case of `CC(C)(C)OC(=O)Nc1cccc(CON=C(c2ncccn2)c2noc(=O)[nH]2)n1` [Example 26], the LogP in series [1] was 2.27^[a].

Regarding `CCCCCC(=O)Nc1cccc(CON=C(c2ncccn2)c2nc(=O)on2C)n1` [Example 48], in series [1], the LogP is 2.18^[a].

As to `CC(C)(C)OC(=O)Nc1cccc(CON=C(C(N)=NO)c2ncccn2)n1` [Example V-07], the LogP in series [1] is 1.58 + 1.87^[a].

Turning to `C#CCCOC(=O)Nc1cccc(CON=C(c2ncccn2)c2noc(=O)n2C)n1` [Example 54], in series [1], the LogP was 2.08^[a].

As for `CCCCCOC(=O)Nc1cccc(CON=C(c2ccccn2)c2noc(=O)n2C)n1` [Example 12], the “% efficacy” value in series [2] turned out to be 85%. Besides, the LogP in series [1] was 3.67^[a].

On to `CC(C)(C)OC(=O)Nc1nc(CON=C(C#N)c2cccs2)cs1` [Example IV-05], for which the LogP in series [1] is 3.65^[a].

For the molecule `Cn1oc(=O)nc1C(=NOCc1cccc(NC(=O)OC(C)(C)C)n1)c1cccnc1` [Example 31], the LogP in series [1] is 2.28 + 2.37^[a].

Turning to `Cn1c(C(=NOCc2csc(NC(=O)c3ccc(F)cc3)n2)c2cccs2)noc1=O` [Example 85], the LogP in series [1] was 3.20^[a].

For the molecule `Cn1c(C(=NOCc2csc(N(COCC[Si](C)(C)C)C(=O)OC(C)(C)C)n2)c2ccsc2)noc1=O` [Example 65], the LogP in series [1] was 5.86^[a].

As to `CCCCC(=O)Nc1cccc(CON=C(c2ccncc2)c2noc(=O)n2C)n1` [Example 83], the “% efficacy” value in series [2] stood at 100%. Further, the LogP in series [1] is 2.34^[a].

For `Cn1c(C(=NOCc2csc(NC(=O)COc3ccccc3)n2)c2cccs2)noc1=O` [Example 86], the LogP in series [1] was 3.18^[a].

`CCCCC(=O)Nc1cccc(CON=C(c2ncccn2)c2noc(=O)n2C)n1` [Example 61]: in series [1], the LogP is 2.23^[a].

With `CCCCCOC(=O)Nc1nc(CON=C(c2cccs2)c2noc(=O)n2C)cs1` [Example 74], the “% efficacy” value in series [2] is 85%. In addition, in series [1], the LogP was 3.79^[a].

Consider `CCCCC(=O)Nc1cccc(CON=C(c2ccncc2)c2nc(=O)on2C)n1` [Example 75], for which the LogP in series [1] was 1.88^[a].

On to `CCCCOC(=O)Nc1cccc(CON=C(c2ncccn2)c2nc(=O)on2C)n1` [Example 46], for which the LogP in series [1] is 2.23^[a].

On to `CC(C)(C)OC(=O)Nc1nc(CON=C(C#N)c2ccsc2)cs1` [Example IV-01], for which the LogP in series [1] was 3.62^[a].

Consider `CCCCCOC(=O)Nc1cccc(CON=C(c2ccccn2)c2nc(=O)on2C)n1` [Example 15], for which, in series [2], the “% efficacy” value was found to be 88%. Also, the LogP in series [1] was 3.09^[a].

Consider `CCCCCC(=O)Nc1cccc(CON=C(c2ccccn2)c2nc(=O)on2C)n1` [Example 18], for which the LogP in series [1] was 2.61^[a].

As to `CCCCC(=O)Nc1cccc(CON=C(c2cccnc2)c2nc(=O)on2C)n1` [Example 62], the LogP in series [1] was 2.04^[a].

Regarding `CC(C)(C)OC(=O)Nc1nc(CON=C(C(N)=NO)c2ccsc2)cs1` [Example V-02], the LogP in series [1] was 2.17^[a].

With `CCCCOC(=O)Nc1cccc(CON=C(c2ccncc2)c2noc(=O)n2C)n1` [Example 82], the “% efficacy” value in series [2] was found to be 100%. For the same molecule, the LogP in series [1] was 2.80^[a].

With `C#CCCOC(=O)Nc1cccc(CON=C(c2cccnc2)c2nc(=O)on2C)n1` [Example 56], the “% efficacy” value in series [2] stood at 89%. Moreover, in series [1], the LogP is 1.88^[a].

As for `CCCCC(=O)Nc1cccc(CON=C(c2ccccn2)c2nc(=O)on2C)n1` [Example 10], the LogP in series [1] was 2.25^[a].

With `CCCCCC(=O)Nc1cccc(CON=C(c2cccnc2)c2noc(=O)n2C)n1` [Example 47], the LogP in series [1] is 2.86^[a].

As to `Cn1c(C(=NOCc2csc(NC(=O)OC(C)(C)C)n2)c2cccs2)noc1=O` [Example 42], the “% efficacy” value in series [2] is 93%. Further, the LogP in series [1] was 3.35^[a].

Take `CCn1oc(=O)nc1C(=NOCc1cccc(N)n1)c1ccccn1` [Example 1]: the LogP in series [1] is 0.69^[a].

As for `CCCCCC(=O)Nc1nc(CON=C(c2ccsc2)c2noc(=O)n2C)cs1` [Example 73], in series [2], the “% efficacy” value is on record as 100%. Further, the LogP in series [1] was 3.43^[a].

With `Cc1nc(CON=C(C#N)c2ccsc2)cs1` [Example IV-09], the LogP in series [1] was 1.45^[a].

On to `CC(C)(C)OC(=O)Nc1nc(CON=C(c2noc(=O)[nH]2)c2cccs2)cs1` [Example 24], for which the LogP in series [1] is 3.26^[a].

On to `Cn1c(C(=NOCc2csc(N(COCC[Si](C)(C)C)C(=O)OC(C)(C)C)n2)c2cccs2)noc1=O` [Example 70], for which, in series [1], the LogP was 5.84^[a].

As to `CN(C(=O)OC(C)(C)C)c1nc(CON=C(c2cccs2)c2noc(=O)n2C)cs1` [Example 41], the LogP in series [1] was 4.24^[a].

With `CC(C)(C)OC(=O)N(C(=O)OC(C)(C)C)c1nc(CON=C(C#N)c2ccsc2)cs1` [Example IV-11], in series [1], the LogP is 4.90^[a].

In the case of `CC(C)(C)OC(=O)N(COCC[Si](C)(C)C)c1nc(CON=C(C#N)c2cccs2)cs1` [Example IV-06], the LogP in series [1] was 6.35^[a].

In the case of `Cn1c(C(=NOCc2cccc(N)n2)c2cccnc2)noc1=O` [Example 35], the LogP in series [1] is 0.52 ± 0.46^[a].

As for `CCCCC(=O)Nc1cccc(CON=C(c2ncccn2)c2nc(=O)on2C)n1` [Example 58], the LogP in series [1] was 1.84^[a].

Consider `Cn1oc(=O)nc1C(=NOCc1cccc(N)n1)c1cccnc1` [Example 34], for which, in series [1], the LogP is 1.19^[a].

Take `C#CCCOC(=O)Nc1cccc(CON=C(c2ccncc2)c2nc(=O)on2C)n1` [Example 76]: the LogP in series [1] was 1.74^[a].

For the molecule `CC(C)(C)OC(=O)Nc1cccc(CON=C(C(N)=NO)c2ccccn2)n1` [Example V-01], the LogP in series [1] is 1.76^[a].

For `Cn1c(C(=NOCc2cccc(NC(=O)OC(C)(C)C)n2)c2ncccn2)noc1=O` (single isomer, unassigned) [Example 27], in series [1], the LogP is 2.66^[a][b].

Turning to `Cn1c(C(=NOCc2cccc(N)n2)c2ccncc2)noc1=O` [Example 40], the LogP in series [1] was 0.41^[a].

For the molecule `CCOC(=O)c1nc(CON=C(C#N)c2ccsc2)cs1` [Example IV-08], in series [1], the LogP was 3.15^[a].

For `CCOC(=O)c1nc(CON=C(C(N)=NO)c2ccsc2)cs1` [Example V-05], in series [1], the LogP is 1.70^[a].

Consider `CCCCOC(=O)Nc1cccc(CON=C(c2ccccn2)c2nc(=O)on2CC)n1` [Example 5], for which the LogP in series [1] was 2.96^[a].

For `Cn1c(C(=NOCc2cccc(NC(=O)OC(C)(C)C)n2)c2ncccn2)noc1=O` (single isomer, unassigned) [Example 28], the LogP in series [1] was 2.56^[a][c].

Consider `CCCCCC(=O)Nc1cccc(CON=C(c2ccccn2)c2nc(=O)on2CC)n1` [Example 11], for which the LogP in series [1] is 2.84^[a].

With `Cn1c(C(=NOCc2cccc(N)n2)c2ncccn2)noc1=O` [Example 30], the LogP in series [1] was 0.39^[a].

As to `CC(C)(C)OC(=O)Nc1cccc(CON=C(c2ccncc2)c2noc(=O)[nH]2)n1` [Example 36], in series [1], the LogP was 2.37^[a].

In the case of `CCCCCC(=O)Nc1cccc(CON=C(c2ccncc2)c2nc(=O)on2C)n1` [Example 77], the LogP in series [1] is 2.23^[a].

Turning to `Cn1oc(=O)nc1C(=NOCc1cccc(N)n1)c1ncccn1` [Example 29], the LogP in series [1] was 0.92^[a].

For the molecule `CCCCOC(=O)Nc1cccc(CON=C(c2ccncc2)c2nc(=O)on2C)n1` [Example 79], the LogP in series [1] is 2.32^[a].

Turning to `Cn1c(C(=NOCc2csc(N)n2)c2cccs2)noc1=O` [Example 81], the LogP in series [1] was 1.38^[a].

On to `CC(C)(C)OC(=O)N(COCC[Si](C)(C)C)c1nc(CON=C(C(N)=NO)c2cccs2)cs1` [Example V-04], for which the LogP in series [1] is 4.60^[a].

Turning to `CCCCCOC(=O)Nc1cccc(CON=C(c2ccccn2)c2nc(=O)on2CC)n1` [Example 2], the LogP in series [1] is 3.42^[a].

For the molecule `Cn1c(C(=NOCc2csc(NC(=O)c3ccc(F)cc3)n2)c2ccsc2)noc1=O` [Example 64], in series [1], the LogP was 3.26^[a].

In the case of `CCCCCOC(=O)Nc1nc(CON=C(c2ccsc2)c2noc(=O)n2C)cs1` [Example 68], the LogP in series [1] is 3.81^[a].

With `Cn1oc(=O)nc1C(=NOCc1cccc(N)n1)c1ccncc1` [Example 39], the LogP in series [1] is 1.20^[c].

With `CCn1oc(=O)nc1C(=NOCc1cccc(NC(=O)OC(C)(C)C)n1)c1ccccn1` [Example 8], the LogP in series [1] was 2.84^[a].

`CC(C)(C)OC(=O)Nc1cccc(CON=C(C#N)c2ncccn2)n1` [Example IV-03]: the LogP in series [1] is 2.82^[a].

For `CC(C)(C)OC(=O)Nc1cccc(CON=C(C(N)=NO)c2ccncc2)n1` [Example V-06], the LogP in series [1] was 1.53^[a].

In the case of `CC(C)(C)OC(=O)Nc1cccc(CON=C(C#N)c2ccncc2)n1` [Example IV-04], the LogP in series [1] was 3.05^[a].

For the molecule `CCCCCOC(=O)Nc1cccc(CON=C(c2ccncc2)c2nc(=O)on2C)n1` [Example 78], in series [1], the LogP is 2.68^[a].

For `CCCCOC(=O)Nc1cccc(CON=C(c2ccccn2)c2nc(=O)on2C)n1` [Example 21], in series [1], the LogP was 2.70^[a].

For the molecule `CC(C)(C)OC(=O)N(COCC[Si](C)(C)C)c1nc(CON=C(c2ccsc2)c2noc(=O)[nH]2)cs1` [Example 66], in series [1], the LogP was 5.45^[a].

As to `CC(C)(C)OC(=O)N(COCC[Si](C)(C)C)c1nc(CON=C(c2noc(=O)[nH]2)c2cccs2)cs1` [Example 72], in series [1], the LogP is 5.45^[a].

As to `CCCCC(=O)Nc1cccc(CON=C(c2ccccn2)c2nc(=O)on2CC)n1` [Example 6], the LogP in series [1] was 2.49^[a].

Regarding `Cn1c(C(=NOCc2cccc(N)n2)c2ccccn2)noc1=O` [Example 14], the LogP in series [1] was 0.85^[a].

As for `CC(C)(C)OC(=O)Nc1nc(CON=C(C(N)=NO)c2cccs2)cs1` [Example V-08], the LogP in series [1] is 2.26^[a].

For the molecule `Cn1oc(=O)nc1C(=NOCc1cccc(NC(=O)OC(C)(C)C)n1)c1ncccn1` [Example 25], in series [1], the LogP was 2.14^[a].
